The structures appear in SMILES notation.

The experiment deals with T1, Promotilin (Homo sapiens, UniProt P12872).
T1 sequence (P12872 whole entry): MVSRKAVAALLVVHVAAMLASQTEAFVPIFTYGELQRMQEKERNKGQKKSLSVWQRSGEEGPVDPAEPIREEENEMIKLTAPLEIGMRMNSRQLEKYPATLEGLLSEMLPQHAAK
For orientation: Ki means a measure of affinity in units of concentration, obtained from inhibition or displacement. The low end stands for tighter binding, the high end for weaker binding. Compound `CC[C@H](C)[C@H](NC(=O)[C@H](CCCN=C(N)N)NC(=O)[C@H](CCC(N)=O)NC(=O)[C@H](CC(C)C)NC(=O)[C@H](CCC(=O)O)NC(=O)CNC(=O)[C@H](Cc1ccc(O)cc1)NC(=O)[C@@H](NC(=O)[C@H](Cc1ccc(C(=O)c2ccccc2)cc1)NC(=O)[C@@H](NC(=O)[C@@H]1CCCN1C(=O)[C@@H](NC(=O)[C@@H](N)Cc1ccccc1)C(C)C)[C@@H](C)CC)[C@@H](C)O)C(=O)N[C@@H](CCC(N)=O)C(=O)N[C@@H](CCC(=O)O)C(=O)N[C@@H](CCCCN)C(=O)N[C@@H](CCC(=O)O)C(=O)N[C@@H](CCCN=C(N)N)C(=O)N[C@@H](CC(N)=O)C(=O)N[C@@H](CCCCN)C(=O)NCC(=O)N[C@@H](CCC(N)=O)C(=O)O` [[L-Bpa5,Ile13]Motilin] gave an inhibitory constant (Ki) of 50 nM.
The value for `CC[C@H](C)[C@H](NC(=O)[C@@H]1CCCN1C(=O)[C@@H](NC(=O)[C@@H](N)Cc1ccccc1)C(C)C)C(=O)N[C@@H](Cc1ccccc1)C(=O)N[C@H](C(=O)N[C@@H](Cc1ccc(O)cc1)C(=O)NCC(=O)N[C@@H](CCC(=O)O)C(=O)N[C@@H](CC(C)C)C(=O)N[C@@H](CCC(N)=O)C(=O)N[C@@H](CCCNC(=N)N)C(=O)N[C@@H](CCSC)C(=O)N[C@@H](CCC(N)=O)C(=O)N[C@@H](CCC(=O)O)C(=O)N[C@@H](CCCCN)C(=O)N[C@@H](CCC(=O)O)C(=O)N[C@@H](CCCNC(=N)N)C(=O)N[C@@H](CC(N)=O)C(=O)N[C@@H](CCCCN)C(=O)NCC(=O)N[C@@H](CCC(N)=O)C(=O)O)[C@@H](C)O` [CAS_52906-92-0] was 2.3 nM; that for `CC[C@H](C)[C@H](NC(=O)[C@H](CCCN=C(N)N)NC(=O)[C@H](CCC(N)=O)NC(=O)[C@H](CC(C)C)NC(=O)[C@H](CCC(=O)O)NC(=O)CNC(=O)[C@H](Cc1ccc(O)cc1)NC(=O)[C@@H](NC(=O)[C@@H](Cc1ccc(C(=O)c2ccccc2)cc1)NC(=O)[C@@H](NC(=O)[C@@H]1CCCN1C(=O)[C@@H](NC(=O)[C@@H](N)Cc1ccccc1)C(C)C)[C@@H](C)CC)[C@@H](C)O)C(=O)N[C@@H](CCC(N)=O)C(=O)N[C@@H](CCC(=O)O)C(=O)N[C@@H](CCCCN)C(=O)N[C@@H](CCC(=O)O)C(=O)N[C@@H](CCCN=C(N)N)C(=O)N[C@@H](CC(N)=O)C(=O)N[C@@H](CCCCN)C(=O)NCC(=O)N[C@@H](CCC(N)=O)C(=O)O` [[D-Bpa5,Ile13]Motilin] was 420 nM.

(Values after BindingDB's records for doi:10.1124/jpet.104.081562 (Mayo Clinic, 2005).)
